The text below walks through data of US20260248799A1, “COMBINATIONS OF RETINALDEHYDE DEHYDROGENASE 1 (RALDH1) INHIBITORS AND IMMUNOSTIMULATORS AND METHODS USING SAME” (The Trustees of the University of Pennsylvania, priority 2023, published 2026).

In assay [1] the test system is murine HCC cell line (Hepa1-6). Kind of assay: AldeRed assay in Hepa1-6 cells. It counts as cell-based, mouse. Particulars: murine HCC cell line Hepa1-6, 24 hours. As to the method: Cultures of tumor cells or primary monocyte-derived cells were treated with C86, C91, C99, BMS 493 (Tocris, 3509) or Win 18446 (Tocris, 4736) at a time and concentration indicated in corresponding figure legends.
The AldeRed assay (EMD Millipore) was performed according to manufacturer's instructions to identify cells with ALDH activity. In brief, single-cell suspensions of Huh7, Huh1, SNU449, SNU398, HEP3B, PLC, Hepa 1-6, Hep55, and AL458A cultured cells or single-cell suspension generated from enzymatic digestion of tumors generated from transplantation of these cells in mice (as indicated in figure legends) were incubated with a fluorescent and non-toxic ALDH substrate (AldeRed 588-A); the fluorescent product accumulates in cells proportional to their ALDH activity. The amount of fluorescence produced is measured by flow cytometry. The ALDH inhibitor diethylaminobenzaldehyde (DEAB, provided with the AldeRed assay kit) was used as a negative control for background fluorescence assessment.

For the next assay, the system named is SNU398 cells. The assay is described as follows: In vitro proliferation and viability of human HCC cell lines. In kind it is cell-based. Particulars: SNU398, 1, 10, 100 and 1000 nM. As to the method: FIG. 20D: LC-MS for ATRA on Hepa1-6 (mouse HCC cell line) or SNU398 (human HCC cell line). […] Two independent experiments were performed with at least three replicates per experimental group. Unpaired t test, two-tailed. *, P<0.05; **, P<0.01; ***, P<0.001. […] Cell proliferation was measured by counting live cell numbers at each time point. […] Cell proliferation was measured by counting live cell numbers at each time point.
Cell viability was measured by flow cytometry (FCM) with 7-AAD staining (Y-axis indicates percentage of 7-AAD negative cells).
1×10^4~2×10^5 of Huh7, Huh1, Hepa 1-6, and Hep55 tumor cells were plated in triplicate in 48-well plates or 6-well plates. Viable cell numbers were counted every day for three to four days.

A further assay addresses T1, Monoamine Oxidase MAO-A (Homo sapiens, UniProt P21397).
T1 construct: Eurofins Cerep Panlabs (contract panel)
The assay is described as follows: Safetyscreen: MAO-A. In kind it is biochemical. The note with it: read-out: % Inh. Monoamine Oxidase MAO-A.

For the next assay, the system named is Phosphodiesterase PDE4. Kind of assay: Safetyscreen: PDE4. In kind it is biochemical, human. Particulars: 10 μM.
Another assay deals with T2, Adrenergic α2A (Homo sapiens, UniProt P08913).
T2 construct: Eurofins Cerep Panlabs (contract panel)
The assay is described as follows: Safetyscreen: Adrenergic α2A. It counts as binding. Particulars: read-out: % Inh. Adrenergic α2A.

For another assay, the target named is T3, Angiotensin AT1 (Homo sapiens, UniProt P30556).
T3 construct: purchased Eurofins Cereps Panlabs
Kind of assay: Safetyscreen: Angiotensin AT1. In kind it is binding. The note with it: read-out: % Inh. Angiotensin AT1.

Each structure is given as a SMILES string. Entries after “also recorded” stand apart in the source; their conditions may differ.

T3 sequence (P30556 whole entry): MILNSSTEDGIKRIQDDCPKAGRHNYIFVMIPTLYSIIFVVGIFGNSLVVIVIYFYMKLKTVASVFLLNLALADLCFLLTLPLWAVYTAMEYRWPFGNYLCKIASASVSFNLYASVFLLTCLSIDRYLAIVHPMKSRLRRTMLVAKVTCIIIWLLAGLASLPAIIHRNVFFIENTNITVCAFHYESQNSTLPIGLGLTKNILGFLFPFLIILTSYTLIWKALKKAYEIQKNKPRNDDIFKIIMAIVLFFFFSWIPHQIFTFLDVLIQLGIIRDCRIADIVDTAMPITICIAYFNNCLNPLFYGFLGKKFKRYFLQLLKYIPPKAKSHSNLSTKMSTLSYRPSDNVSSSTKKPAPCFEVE
T1 sequence (P21397 whole entry): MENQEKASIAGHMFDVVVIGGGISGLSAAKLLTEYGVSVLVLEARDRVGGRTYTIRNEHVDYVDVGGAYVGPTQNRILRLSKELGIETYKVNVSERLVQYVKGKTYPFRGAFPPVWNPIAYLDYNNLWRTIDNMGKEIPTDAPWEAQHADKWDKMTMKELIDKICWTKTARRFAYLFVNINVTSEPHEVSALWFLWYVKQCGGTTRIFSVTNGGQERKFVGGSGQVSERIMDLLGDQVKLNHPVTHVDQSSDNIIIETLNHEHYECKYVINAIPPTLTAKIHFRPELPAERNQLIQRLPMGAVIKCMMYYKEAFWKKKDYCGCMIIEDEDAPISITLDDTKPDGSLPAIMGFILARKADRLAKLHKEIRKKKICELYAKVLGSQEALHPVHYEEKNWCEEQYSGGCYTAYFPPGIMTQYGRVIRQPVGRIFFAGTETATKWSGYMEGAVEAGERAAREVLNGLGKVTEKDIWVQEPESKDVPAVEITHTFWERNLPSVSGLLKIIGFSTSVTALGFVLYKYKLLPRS
T2 sequence (P08913 whole entry): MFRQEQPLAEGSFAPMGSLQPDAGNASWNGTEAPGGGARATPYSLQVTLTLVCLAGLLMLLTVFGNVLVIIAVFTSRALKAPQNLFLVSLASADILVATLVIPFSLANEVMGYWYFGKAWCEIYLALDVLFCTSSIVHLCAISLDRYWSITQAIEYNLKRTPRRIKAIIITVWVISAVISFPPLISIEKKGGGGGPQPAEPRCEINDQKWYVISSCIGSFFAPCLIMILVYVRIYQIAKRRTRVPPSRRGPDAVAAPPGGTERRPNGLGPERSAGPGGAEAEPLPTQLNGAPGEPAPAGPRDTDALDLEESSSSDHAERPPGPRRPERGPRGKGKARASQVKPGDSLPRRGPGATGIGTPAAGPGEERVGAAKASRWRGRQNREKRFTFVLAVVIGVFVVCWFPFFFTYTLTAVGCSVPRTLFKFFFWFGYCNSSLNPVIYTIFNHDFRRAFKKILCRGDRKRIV

For `CS(=O)(=O)N1CCN(C(=O)c2cnc3ccc(F)cc3c2N2CCC(C#N)(c3ccccc3)CC2)CC1` [Compound C-86, 1-(6-fluoro-3-(4-(methylsulfonyl)piperazine-1-carbonyl)quinolin-4-yl)-4-phenylpiperidine-4-carbonitrile], the AldeRed fluorescence result in assay [1] is “no change in AldeRed fluorescence; also recorded: failed to reduce AldeRed fluorescence”. The “HCC cell growth in vitro” value in the assay on SNU398 cells is recorded as “did not inhibit HCC cell growth in vitro”. Besides, the inhibition at 10 µM on Monoamine Oxidase MAO-A is 2%; on Adrenergic α2A, 0%; at Angiotensin AT1 it was 19%. The “% Inh. Phosphodiesterase PDE4” value in the assay on Phosphodiesterase PDE4 is recorded as −7%.
